This note sets out measurements from ChEMBL document CHEMBL6134871, “PCSK9 Targeted Autophagosome-Tethering Compounds: Design, Synthesis, and Antiatherosclerosis Evaluation” (J Med Chem, 2025).

Active and inactive are the calls of the source. No cut-off for these calls is given here.

The nature of series [1]: Tmax in C57 mouse at 5 mg/kg, po. The format is ADME, organism-based. Conditions: in vivo.
A short description of series [2]: Tmax in C57 mouse at 5 mg/kg, ip. The series is classed as ADME, organism-based. Conditions: in vivo.
Series [3] can be described thus: Cmax in C57 mouse at 5 mg/kg, po. To be noted: in vivo. The series is classed as ADME, organism-based.
A short description of series [4]: Cmax in C57 mouse at 5 mg/kg, ip. The series is classed as ADME, organism-based. To be noted: in vivo.
A short description of series [5]: AUC (0 to t) in C57 mouse at 5 mg/kg, iv. The series is classed as ADME, organism-based. Conditions: in vivo.
Series [6] in a line: AUC (0 to t) in C57 mouse at 5 mg/kg, po. The format is ADME, organism-based. To be noted: in vivo.
Series [7] in a line: AUC (0 to t) in C57 mouse at 5 mg/kg, ip. The series is classed as ADME, organism-based. Conditions: in vivo.
A short description of series [8]: AUC (0 to infinity) in C57 mouse at 5 mg/kg, iv. The format is ADME, organism-based. Conditions: in vivo.
Series [9] is described as follows: AUC (0 to infinity) in C57 mouse at 5 mg/kg, po. The format is ADME, organism-based. To be noted: in vivo.
A short description of series [10]: AUC (0 to infinity) in C57 mouse at 5 mg/kg, ip. The format is ADME, organism-based. To be noted: in vivo.
The nature of series [11]: Oral bioavailability in C57 mouse at 5 mg/kg. Conditions: in vivo. The format is ADME, organism-based.
A short description of series [12]: Bioavailability in C57 mouse at 5 mg/kg, ip. The series is classed as ADME, organism-based. Conditions: in vivo.
The test system of series [13] is Huh-7. As to the kind of experiment: Induction of autophagy in human Huh-7 cells assessed as colocalization of lysosome with LC3B protein at 100 nM incubated for 3 hrs by DAPI staining based fluorescence based analysis. The format is functional, cell-based.
Series [14] relates to Huh-7. As to the kind of experiment: Induction of autophagy in human Huh-7 cells assessed as colocalization of lysosome with LAMP1 protein at 100 nM incubated for 3 hrs by DAPI staining based fluorescence based analysis. The format is functional, cell-based.
Series [15] relates to Huh-7. Put plainly: Induction of LDL uptake in human Huh-7 cells at 100 nM incubated for 24 hrs by DiI-LDL DMEM staining based fluorescence microplate reader assay. The series is classed as functional, cell-based.
For series [16], the system named is Huh-7. As to the kind of experiment: Induction of autophagy in human Huh-7 cells assessed as reduction in PCSK9 level at 37 uM incubated for 24 hrs in presence of chloroquine by Western blot analysis. The format is functional, cell-based.
The subject of series [17] is Huh-7. As to the kind of experiment: Induction of autophagy in human Huh-7 cells assessed as reduction in PCSK9 level at 100 nM incubated for 24 hrs in presence of carfilzomib by Western blot analysis. The series is classed as functional, cell-based.
Series [18] concerns Huh-7. As to the kind of experiment: Induction of autophagy in human Huh-7 cells assessed as reduction in PCSK9 level at 100 nM incubated for 24 hrs in presence of EBSS by Western blot analysis. The series is classed as functional, cell-based.
Series [19] deals with HUVEC. Put plainly: Anti-atherosclerosis activity in human HUVEC cells assessed as reduction in Bax level at 100 nM incubated for 24 hrs by Western blot analysis. The series is classed as functional, cell-based.
The test system of series [20] is HUVEC. As to the kind of experiment: Anti-atherosclerosis activity in human HUVEC cells transfected with PCSK9 siRNA assessed as increase in Bcl-2 level at 100 nM incubated for 24 hrs by Western blot analysis. The format is functional, cell-based.
Series [21] relates to HUVEC. As to the kind of experiment: Anti-atherosclerosis activity in human HUVEC cells transfected with PCSK9 siRNA assessed as inhibition of ox-LDL-induced caspase 9 expression at 100 nM preincubated with compound for 24 hrs followed by ox-LDL induction and measured after 24 hrs by Western blot analysis. The format is functional, cell-based. Conditions: time 48.0 hrs.
Series [22] relates to HUVEC. Put plainly: Anti-atherosclerosis activity in human HUVEC cells transfected with PCSK9 siRNA assessed as inhibition of ox-LDL-induced caspase 3 expression at 100 nM preincubated with compound for 24 hrs followed by ox-LDL induction and measured after 24 hrs by Western blot analysis. The series is classed as functional, cell-based. To be noted: time 48.0 hrs.
The test system of series [23] is HUVEC. Put plainly: Anti-atherosclerosis activity in human HUVEC cells transfected with PCSK9 siRNA assessed as inhibition of LPS-induced ICAM-1 mRNA expression at 100 nM preincubated with compound for 24 hrs followed by LPS induction and measured after 24 hrs by qPCR analysis. To be noted: time 48.0 hrs. The format is functional, cell-based.
Series [24] relates to HUVEC. Put plainly: Anti-atherosclerosis activity in human HUVEC cells transfected with PCSK9 siRNA assessed as inhibition of LPS-induced VCAM-1 mRNA expression at 100 nM preincubated with compound for 24 hrs followed by LPS induction and measured after 24 hrs by qPCR analysis. Conditions: time 48.0 hrs. The format is functional, cell-based.
The subject of series [25] is THP-1. Put plainly: Anti-atherosclerosis activity in human THP-1 cells transfected with PCSK9 siRNA assessed as reduction in ox-LDL-induced amount of red lipid droplets at 100 nM preincubated with compound for 24 hrs followed by ox-LDL induction and measured after 24 hrs by oil red staining based analysis. The series is classed as functional, cell-based. To be noted: time 48.0 hrs.

The subject of series [26] is THP-1. Put plainly: Anti-atherosclerosis activity in human THP-1 cells transfected with PCSK9 siRNA assessed as reduction in CD36 level at 100 nM preincubated with compound for 24 hrs followed by ox-LDL induction and measured after 24 hrs by Western blot analysis. Conditions: time 48.0 hrs. The format is functional, cell-based.
The test system of series [27] is THP-1. As to the kind of experiment: Anti-atherosclerosis activity in human THP-1 cells transfected with PCSK9 siRNA assessed as reduction in NLRP3 level at 100 nM preincubated with compound for 24 hrs followed by ox-LDL induction and measured after 24 hrs by Western blot analysis. The format is functional, cell-based. Conditions: time 48.0 hrs.
In series [28] the test system is THP-1. Put plainly: Anti-atherosclerosis activity in human THP-1 cells transfected with PCSK9 siRNA assessed as reduction in NF-kappaB level at 100 nM preincubated with compound for 24 hrs followed by ox-LDL induction and measured after 24 hrs by Western blot analysis. To be noted: time 48.0 hrs. The series is classed as functional, cell-based.
Series [29] concerns MOVAS. As to the kind of experiment: Downregulation of PCSK9 expression in mouse MOVAS cells transfected with PCSK9 siRNA incubated for 24 hrs Western blot analysis. The series is classed as functional, cell-based.
The test system of series [30] is MOVAS. Put plainly: Antiproliferative activity mouse MOVAS cells assessed as inhibition of cell growth incubated for 24 hrs by MTT assay. The format is functional, cell-based.
Series [31] deals with Huh-7. Put plainly: Antiproliferative activity human Huh-7 cells assessed as inhibition of cell growth incubated for 24 hrs by MTT assay. The format is functional, cell-based.
In a further series the test system is HepG2. Put plainly: Antiproliferative activity human HepG2 cells assessed as inhibition of cell growth incubated for 24 hrs by MTT assay. The series is classed as functional, cell-based.
For series [32], the system named is THP-1. As to the kind of experiment: Antiproliferative activity human THP-1 cells assessed as inhibition of cell growth incubated for 24 hrs by MTT assay. The series is classed as functional, cell-based.
Series [33] deals with HUVEC. As to the kind of experiment: Antiproliferative activity human HUVEC cells assessed as inhibition of cell growth incubated for 24 hrs by MTT assay. The series is classed as toxicity, cell-based.
Series [34] in a line: Toxicity in mouse assessed as change in body weight at 5 to 15 mg/kg, po. The series is classed as organism-based. Conditions: in vivo, dose 5-15 mg/kg.
A short description of series [35]: Toxicity in mouse assessed as heart damage at 5 to 15 mg/kg, po. The series is classed as organism-based. To be noted: in vivo, dose 5-15 mg/kg.
Series [36] is described as follows: Toxicity in mouse assessed as kidney damage at 5 to 15 mg/kg, po. Conditions: in vivo, dose 5-15 mg/kg. The series is classed as organism-based.
For series [37], the system named is Mus musculus. Put plainly: Anti-atherosclerosis activity in mouse assessed as reduction in TC level in plasma at 15 mg/kg, po measured for 3 weeks. The format is functional, organism-based.
Series [38] relates to Mus musculus. Put plainly: Anti-atherosclerosis activity in mouse assessed as […] in LDL level in liver at 15 mg/kg, po measured for 3 weeks. The series is classed as functional, organism-based.
Series [39] deals with Mus musculus. As to the kind of experiment: Anti-atherosclerosis activity in mouse assessed as reduction in LDLR level in liver at 15 mg/kg, po measured for 3 weeks by Western blot analysis. The format is functional, organism-based.
In series [40] the test system is Mus musculus. As to the kind of experiment: Anti-atherosclerosis activity in mouse assessed as reduction in PCSK9 level in liver at 15 mg/kg, po measured for 3 weeks by Western blot analysis. The format is functional, organism-based.
In series [41] the test system is Mus musculus. As to the kind of experiment: Anti-atherosclerosis activity in mouse assessed as reduction in NF-kappab level in liver at 15 mg/kg, po measured for 3 weeks by Western blot analysis. The format is functional, organism-based.
The subject of series [42] is Mus musculus. Put plainly: Anti-atherosclerosis activity in mouse assessed as reduction in NLRP3 level in liver at 15 mg/kg, po measured for 3 weeks by Western blot analysis. The format is functional, organism-based.
Series [43] deals with Mus musculus. Put plainly: Anti-atherosclerosis activity in mouse assessed as reduction in plaque area in aorta at 15 mg/kg, po measured for 3 weeks. The format is functional, organism-based.

Consider `COc1cc2c(cc1OCCCCN1C(=O)/C(=C\c3cc(Br)c(O)c(OC)c3)c3cc(Br)ccc31)C(C)(CC(=O)Nc1nccs1)NCC2` (stereo not given), for which the Tmax in [1] and in [2] was 60 min in each case. Moreover, the Cmax came to 55 ng/mL in series [3] and 423 ng/mL in [4]. Also, the exposure AUC(0-t) in [5] worked out at 9810 ng·h/mL; in [6] it was 101 ng·h/mL; in series [7], 951 ng·h/mL. Besides, the area under the curve AUC(0-inf) in series [8] (C57, mouse) came out at 10600 ng·h/mL; in [9] (C57, mouse) it was 119 ng·h/mL; in series [10], 987 ng·h/mL. In addition, the bioavailability in series [11] (C57, mouse) was 1.02%; in series [12], 9.69%.
Regarding `O=C1Nc2ccc(I)cc2/C1=C/c1cc(Br)c(O)c(Br)c1`, the outcome in the series with Huh-7 [13] and with Huh-7 [14] was inactive.
For `COc1cc2c(cc1O)C(C)(CC(=O)Nc1nccs1)NCC2` (stereo not given), the outcome in the series on Huh-7 [13] and in the series with Huh-7 [14] was inactive.
On to `COc1cc2c(cc1OCCOCCOCCOCCN1C(=O)/C(=C\c3cc(Br)c(O)c(Br)c3)c3cc(I)ccc31)C(C)(CC(=O)Nc1nccs1)NCC2` (stereo not given), for which the outcome in the series with Huh-7 [15], in the series with Huh-7 [17], in the series on Huh-7 [18], in the series with Huh-7 [13], with Huh-7 [14] and in the series with HUVEC [19] was Active. Also, the result in the series with HUVEC [20], in the series with HUVEC [21], in the series with HUVEC [22], in the series with HUVEC [23], in the series on HUVEC [24] and in the series with THP-1 [25] was Active. Further, the result with THP-1 [26], in the series on THP-1 [27], with THP-1 [28], in the series on MOVAS [29], in the series with MOVAS [30] and with Huh-7 [31] was Active. In addition, the outcome with HepG2, with THP-1 [32], in the series with Mus musculus [37], with Mus musculus [38], in the series with Mus musculus [39] and with Mus musculus [40] was Active. The outcome in the series on Mus musculus [41], in the series with Mus musculus [42] and in the series on Mus musculus [43] was Active. Further, the outcome in the series with Huh-7 [16] was inactive. Moreover, the Activity result (with HUVEC [33]; in [34]; in series [35]; in series [36]) was “Non-toxic” each time. Further, the time of peak concentration (Tmax) in series [1] was 15 min; in series [2] it was 30 min. The figures for the highest concentration (Cmax) in series [3] and in series [4] were 57.8 ng/mL and 1860 ng/mL, respectively. Moreover, the results for the exposure AUC(0-t) in series [5], in series [6] and in series [7] were 9500 ng·h/mL, 59.8 ng·h/mL and 6070 ng·h/mL, respectively. Moreover, the area under the curve (AUC) is 9932 ng·h/mL in [8] (mouse, iv, 5 mg/kg) and 177 ng·h/mL in series [9] (mouse, po, 5 mg/kg). The area under the curve AUC(0-inf) in series [10] is 6350 ng·h/mL. The compound further registered a F in series [11] (mouse, po, 5 mg/kg) of 0.63%. The bioavailability in series [12] was 63.9%.
